AC50 and activity change, negative = cytotoxicity data for 78 compounds are collected here from PubChem BioAssay AID624285 (Broad Institute, 2012).

The source made the active and inactive calls.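 The calls were made as follows: active = signal-decreasing dose-response curve whose fitted half-maximal concentration is at or below twice the highest valid tested dose; inconclusive = flat fit at 30 to 70% signal loss, or poor fit; inactive = the rest.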

The first assay relates to NIH3T3/HeLa viability, CellTiter-Glo ATP luminescence, 24 h. The experiment in a line: cell viability loss after compound exposure – 24 h, luminescence, cherry-picked samples, cytotoxicity control for PDI inhibitor project, dose response (AID 624285).
Conditions: not given
For `Oc1cccc(-c2nc3c4c(ncn3n2)-c2ccccc2CC42CCCC2)c1`, the AC50 is 14.3 µM.

In the case of `CS(=O)(=O)c1ccc(C(=O)OCC(=O)N2CCN(CCC3CCCCC3)CC2)cc1[N+](=O)[O-]`, the AC50 is 3.32 µM.

As for `CCOC(=O)C1(CCOc2ccccc2)CCN(Cc2ccccc2O)CC1`, the AC50 was > 70 µM (inactive).

Consider `CCCCC(=O)OC1CCC2C3CCc4cc(O)ccc4C3CCC12C` (stereo not drawn), for which the AC50 was 27.3 µM.

On to `CCc1cc(OCCCCNCc2ccccc2)ccc1Cl`, for which the half-maximal activity concentration (AC50) is 21.5 µM.

Take `CC(C)Sc1nnc([C@H](Cc2c[nH]c3ccccc23)NC(=O)OC(C)(C)C)o1`: the AC50 was > 70 µM (inactive).

For the compound `COc1ccc(C(=O)c2c(C)c3cc(C)ccc3n2CC(O)CN2CCOCC2)cc1` (stereo not drawn), the AC50 was > 70 µM (inactive).

With `Cc1sc(NC(=O)CCl)c(C(=O)c2ccccc2)c1C`, the AC50 is 15.4 µM.

As for `CCCN(CCC)S(=O)(=O)c1ccc(C(=O)Nc2nnc(COC)o2)cc1`, the AC50 is > 70 µM (inactive).

For the compound `CCOc1cc(N2CCOCC2)c(OCC)cc1NC(=O)Cc1ccccc1OC`, the half-maximal activity concentration (AC50) is 39.5 µM.

`O=C(CCS(=O)(=O)c1ccccc1)N(CCCN1CCOCC1)c1nc2ccccc2s1`: the AC50 was 14.2 µM.

`COc1ccc(-c2nnc3ccc(SCC(=O)Nc4nc5ccccc5s4)nn23)cc1OC`: the AC50 was > 70 µM (inactive).

For `CCOC(=O)c1c(CN(C)C)n(-c2ccccc2)c2cc(Br)c(O)cc12`, the AC50 was > 70 µM (inactive).

For `O=C(Nc1ccc(Br)cc1F)c1cccnc1`, the AC50 was > 70 µM (inactive).

With `Cc1cc(O)cc2c1C1CCC3(C)C(=O)CCC3C1C=C2` (stereo not drawn), the AC50 is > 70 µM (inactive).

As to `CC12CCC3c4ccc(O)cc4CCC3C1CCC2=O` (stereo not drawn), the AC50 is > 70 µM (inactive).

Turning to `Cc1[nH][nH]c(=O)c1C(c1c(C)[nH][nH]c1=O)c1cn(Cc2ccccc2Cl)c2ccccc12`, the AC50 is > 70 µM (inactive).

As to `O=C(/C=C/c1ccc(N2CCCCC2)c([N+](=O)[O-])c1)c1ccc(O)cc1`, the AC50 is 12 µM.

`O=C(NCCc1c[nH]c2ccccc12)/C(=C\c1cccnc1)NC(=O)c1ccccc1Br`: the AC50 is > 70 µM (inactive).

Consider `CC(=O)c1cc(-c2ccccc2)n(CC(=O)Nc2cccc(C)c2)c1C`, for which the AC50 is > 70 µM (inactive).

`COc1cccc2c1C(=O)c1c(O)c3c(c(O)c1C2=O)CC(O)(C(C)=NO)CC3OC1CC(N)C(O)C(C)O1` (stereo not drawn): the AC50 is 5.56 µM.

`O=C(Nc1nc2ccccc2s1)c1cccc(S(=O)(=O)N2CCc3ccccc32)c1`: the AC50 was > 70 µM (inactive).

Turning to `COc1ccc(C2c3ccc(O)cc3Oc3ncn(CCN4CCOCC4)c(=N)c32)cc1OC` (stereo not drawn), the AC50 is > 70 µM (inactive).

For the compound `NNC(=O)c1cc(-c2ccc(O)cc2)nc2ccc(Br)cc12`, the AC50 is > 70 µM (inactive).

`CC(=O)Oc1ccc(C2OC(=O)c3ccccc3N2C(C)=O)cc1` (stereo not drawn): the AC50 is > 70 µM (inactive).

As to `COc1ccc(C2c3ccc(O)cc3Oc3ncn4nc(-c5cccnc5)nc4c32)cc1OC` (stereo not drawn), the concentration at half-maximal activity (AC50) was 30.6 µM.

As to `CCOC(=O)c1c(CN2CCOCC2)n(-c2ccccc2)c2cc(Br)c(O)cc12`, the AC50 is > 70 µM (inactive).

As for `CCOC(=O)C1(CCOc2ccccc2)CCN(Cc2ccc(O)c(Cl)c2)CC1`, the AC50 was > 70 µM (inactive).

As for `Cc1nnc(SCc2cc(=O)oc3cc(O)ccc23)n1Cc1ccccc1`, the AC50 is > 70 µM (inactive).

Turning to `COc1ccc(/C=C/C(=O)c2cc(F)ccc2OC(=O)c2ccccc2OC)cc1OC`, the half-maximal activity concentration (AC50) was 23.5 µM.

`O=c1cc(CN2CCN(S(=O)(=O)/C=C/c3ccccc3)CC2)c2ccc(O)cc2o1`: the AC50 is > 70 µM (inactive).

Take `COc1c(Br)cc(C(N)=O)cc1OCc1ccccc1`: the AC50 was > 70 µM (inactive).

As for `COc1ccc(/C=C2\CN(Cc3ccccc3)C/C(=C\c3ccc(OC)c(O)c3)C2=O)cc1O`, the half-maximal activity concentration (AC50) was 6.12 µM.

As to `COc1cc2cc(C(=O)N3CC(COS(C)(=O)=O)c4ccc(O)cc43)[nH]c2c(OC)c1OC` (stereo not drawn), the AC50 is 0.0396 µM.

In the case of `C[C@@H]1CN([C@H](C)CO)C(=O)c2cccc(NS(C)(=O)=O)c2O[C@@H]1CN(C)Cc1ccc(Oc2ccccc2)cc1`, the AC50 is > 70 µM (inactive).

With `COc1cc(C2C(C#N)=C(N)Oc3cc(O)ccc32)cc(OC)c1OC` (stereo not drawn), the AC50 is > 70 µM (inactive).

Take `COC(=O)c1ccc(NC(=S)NCCc2cccc(C)c2)cc1`: the AC50 is > 70 µM (inactive).

For `CCOc1cc(/C=C/C(=O)c2ccc(O)cc2)ccc1OCC(=O)N(C)C`, the half-maximal activity concentration (AC50) was 39.4 µM.

With `O=C(Nc1nccs1)c1ccc(-c2ccccc2[N+](=O)[O-])o1`, the AC50 was > 70 µM (inactive).

Turning to `CCSc1nnc([C@H](Cc2c[nH]c3ccccc23)NC(=O)OC(C)(C)C)o1`, the AC50 is > 70 µM (inactive).

For the compound `CCOc1ccc(CCN2C(=O)C(=O)N([C@@H](CC(C)C)CN3CCC[C@@H]3CN3C(=O)C(=O)NC[C@@H]3Cc3ccccc3)C[C@@H]2Cc2ccc(O)cc2)cc1`, the AC50 was 38.1 µM.

Turning to `Cn1cnnc1Sc1ccc(/C=C/C(=O)c2ccc(O)cc2)cc1[N+](=O)[O-]`, the AC50 was 12.3 µM.

Consider `COc1ccc(/C=C2\Sc3ccc(C(=O)NCCCN4CCCC4)cc3N(C)C2=O)cc1OC`, for which the AC50 is 35.2 µM.

As to `O=C(NC(Cc1c[nH]c2ccccc12)C(=O)N/N=C/c1cccnc1)c1cccs1` (stereo not drawn), the AC50 is > 70 µM (inactive).

Turning to `O=S(=O)(Nc1ccc(C(O)(C(F)(F)F)C(F)(F)F)cc1)c1ccc(Cl)c2nonc12`, the half-maximal activity concentration (AC50) was 9.47 µM.

Test system in the next assay: not listed separately
Described as above. The conditions noted are these: NIH3T3/HeLa viability, CellTiter-Glo ATP luminescence, 24 h; at 35 µM (top of the series).
With `O=C(CNC(=O)c1n[nH]c2ccccc12)Nc1cc(Cl)ccc1Cl`, the activity change, negative = cytotoxicity is -8.33% (inactive).

Consider `O=C1[C@@H]2C(Cc3ccc(O)cc3)NC3(C(=O)Nc4ccc(F)cc43)[C@@H]2C(=O)N1c1ccccc1` (stereo partly drawn), for which the activity change, negative = cytotoxicity was -14% (inactive).

Take `O=C(NCCN1CCOCC1)c1cccnc1SCc1ccccc1Cl`: the activity change, negative = cytotoxicity is -5.22% (inactive).

For `C[C@H](CO)N1C[C@H](C)[C@H](CN(C)S(=O)(=O)c2ccc(F)cc2)Oc2ccc(NC(=O)Cc3cn(C)c4ccccc34)cc2C1=O`, the activity change, negative = cytotoxicity was -6.42% (inactive).

In the case of `CCOc1ccc(/C=N/OC(C)C(=O)NCc2ccc3c(c2)OCO3)cc1` (stereo not drawn), the activity change, negative = cytotoxicity was -5.51% (inactive).

Consider `CC1(C(=O)N2CCCCC2)CCN1C(=O)Cc1ccc(-c2ccccc2)cc1` (stereo not drawn), for which the activity change, negative = cytotoxicity was -5.8% (inactive).

Regarding `Cc1ccc(SCC(=O)c2sc(-c3ccccc3)nc2C)cc1`, the activity change, negative = cytotoxicity was -11.9% (inactive).

For the compound `COc1ccc(C2C(C(C)=O)=C(O)C(=O)N2CCc2c[nH]c3ccccc23)cc1OC` (stereo not drawn), the activity change, negative = cytotoxicity was -3.29% (inactive).

Consider `NC(=O)CSc1nnc([C@@H](N)Cc2c[nH]c3ccccc23)o1`, for which the activity change, negative = cytotoxicity is -10.6% (inactive).

On to `Cc1c(-n2cc(C(=O)c3ccccc3O)cc(C#N)c2=O)c(=O)n(-c2ccccc2)n1C`, for which the activity change, negative = cytotoxicity was -5.22% (inactive).

As for `Cc1[nH]c2ccc(C(=O)NC3CCCC3)cc2c1C`, the activity change, negative = cytotoxicity is -3.79% (inactive).

On to `O=C1/C(=C\c2ccc(O)cc2)CCC1CNc1ccc(Cl)cc1` (stereo not drawn), for which the activity change, negative = cytotoxicity is -7.39% (inactive).

`CC(=O)NC1(c2nnnn2CCOC(=O)Nc2ccc(Cl)cc2)CCCCC1`: the activity change, negative = cytotoxicity is 5.78% (inactive).

In the case of `CCN(CC)C(=O)CSc1nnc([C@H](Cc2c[nH]c3ccccc23)NC(=O)OC(C)(C)C)o1`, the activity change, negative = cytotoxicity is -8.74% (inactive).

`C=CCNc1ncnc2c1ncn2[C@H]1CN(Cc2cccc3ccccc23)C[C@@H](CO)O1`: the activity change, negative = cytotoxicity was -8.26% (inactive).

Consider `Cc1ccc(N2CC(C(=O)Nc3nc4ccc(S(C)(=O)=O)cc4s3)CC2=O)cc1` (stereo not drawn), for which the activity change, negative = cytotoxicity is -4.02% (inactive).

With `O=C(O)c1ccccc1Cc1ccc(F)c2ccccc12`, the activity change, negative = cytotoxicity is -10.5% (inactive).

Consider `CC(Cc1ccc(O)cc1)NCC(O)c1ccc(O)c(O)c1` (stereo not drawn), for which the activity change, negative = cytotoxicity is -7.22% (inactive).

In the case of `Cc1cc2c3c(c1)C1(C(=O)N3C(C)(C)CC2C)C(C#N)=C(N)Oc2n[nH]c(C)c21` (stereo not drawn), the activity change, negative = cytotoxicity is -11.6% (inactive).

With `CC[C@]12c3[nH]c4cc(-c5ccco5)ccc4c3CCN1C(=O)[C@@H](CC(=O)NCc1ccc(OC)c(OC)c1)C[C@@H]2C(=O)N1CCN(C(=O)C2CC2)CC1`, the activity change, negative = cytotoxicity was -17.7% (inactive).

`O=C(NCc1ccccn1)Nc1cccc(Cl)c1`: the activity change, negative = cytotoxicity is -8.23% (inactive).

For `CNc1ncnc2c1ncn2[C@H]1CN(Cc2cccc3ccccc23)C[C@@H](CO)O1`, the activity change, negative = cytotoxicity is -19.8% (inactive).

On to `O=c1c(O[C@@H]2O[C@H](CO)[C@@H](O)[C@H](O)[C@H]2O)c(-c2ccc(O)cc2)oc2cc(O)cc(O)c12`, for which the activity change, negative = cytotoxicity was -2.51% (inactive).

With `CN1C(=O)NC(c2ccccc2)C2=C1CN(c1cccc(C(F)(F)F)c1)C2=O` (stereo not drawn), the activity change, negative = cytotoxicity was -4.45% (inactive).

As to `CCN1C(=O)C2C(c3ccccc3F)NC(Cc3ccc(O)cc3)(C(=O)OC)C2C1=O` (stereo not drawn), the activity change, negative = cytotoxicity is -13.9% (inactive).

For the compound `CC(=O)N(C)C1(c2nnnn2CCOC(=O)Nc2ccc(Cl)cc2)CCCCC1`, the activity change, negative = cytotoxicity is -9.52% (inactive).

Turning to `O=C(O)CCc1ccc(-c2cccs2)n1NC(=O)c1ccco1`, the activity change, negative = cytotoxicity is 0.695% (inactive).

On to `CC(=O)OCC(=O)NCc1ccc2c(c1)OCO2`, for which the activity change, negative = cytotoxicity was -5.14% (inactive).

Consider `CN(CCC(=O)Nc1ccc(Br)cc1)Cc1ccccc1`, for which the activity change, negative = cytotoxicity is -5.93% (inactive).

Consider `C=CCn1c(C(CCCC)CC(O)COCC(C)C)n[nH]c1=S` (stereo not drawn), for which the activity change, negative = cytotoxicity was -17.2% (inactive).

In the case of `COCC(=O)NC1(c2nnnn2CCOC(=O)Nc2ccc(Cl)cc2)CCCCC1`, the activity change, negative = cytotoxicity was -7.94% (inactive).

In the case of `C[C@H]1CCCC(=O)CCCCCc2cc(O)cc(O)c2C(=O)O1`, the activity change, negative = cytotoxicity is -12.8% (inactive).

Consider `CC(=O)C1=C(O)C(=O)N(CCc2c[nH]c3ccccc23)C1c1cccc(O)c1` (stereo not drawn), for which the activity change, negative = cytotoxicity was -10.4% (inactive).
